Laboratory results as given in patent US11180510B2, “Xanthine derivatives and uses thereof as inhibitors of bromodomains of BET proteins” (Centre national de la recherche scientifique, priority 2017, dated 2021).
Like-named read-outs stand apart in the source and are kept apart here.

Experiments:
Jurkat cells = assay: Cell Titer-Glo cell viability assay, Jurkat; format: cell-based; conditions: Homo sapiens, 72 h, mean of three experiments, NA = IC50 > maximal concentration used
Protocol: (§1) The human leukemia cell line Jurkat (ATCC® TIB-152) and Molm14 was maintained in RPMI-1640 medium or MEMα, respectively and supplemented both with 10% FBS at 37° C. and 5% CO2.
(§2) In antiproliferative assays, compounds were assayed for their growth inhibiting activity towards the described cancer cell lines using the Cell Titer-Glo Luminescent Cell Viability Assay as described by the manufacturer (Promega Corporation). Briefly, 10.000 cells were plated onto 96 well-plates (white with clear bottom (3610, Corning Costar)) in 90 μL media per well immediately before assay. 10 μL of compounds were added at different concentrations (ranging from 50 μM to 6 nM) to each well and cell cultures were incubated 37° C. during 72 h. Vehicle (DMSO) was used as negative control, JQ1 (a pan-BET inhibitor) was used as positive control and all compounds were tested in constant percentage of DMSO (1%). After addition of 50 μL Cell Titer-GLO, shaking 2 minutes and incubating at room temperature 10 minutes, the Luminescence was measured using a Centro luminometer LB960 (Berthold). Dose-response curves were generated and effective dose 50 values (EC50) were calculated using non-linear regression analysis (Graph Pad Prism).

Brd3(BD1) = Brd3(BD1) (Homo sapiens, UniProt Q15059); assay: HTRF BET selectivity profile, Brd3(BD1); format: binding; parameters: GST tagged bromodomain proteins were purchased from BPS Bioscience; purchased BPS Bioscience; conditions: for Ratio 3-1 vs 3-2: selectivity Brd3(BD1) vs Brd3(BD2), HTRF IC50
Brd3(BD1), sequence (Q15059 34-140 limits assumed): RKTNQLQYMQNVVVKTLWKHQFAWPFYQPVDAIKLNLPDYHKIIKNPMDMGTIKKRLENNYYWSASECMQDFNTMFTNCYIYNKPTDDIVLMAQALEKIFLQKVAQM
Protocol: (§3) HTRF assays were performed in white 384 Well Small Volume™ HiBase Polystyrene Microplates (Greiner) with a total working volume of 20 μL. Compounds were dispensed, with 100 nL per well (0.5% final DMSO), from a concentration stock of 10 mM in 100% DMSO and with serial DMSO dilutions, using an Echo® 550 robot from the Access Labcyte platform (Labcyte) and based on the transfer of liquid by acoustic wave. Then, 19.5 μL of buffer is added, using a Multidrop Combi (Thermo Fisher Scientific). […] All HTRF reagents (donor and acceptor) were purchased from CisBio Bioassays and reconstituted according to the supplier protocols. The peptide was purchased from Genic Bio Synthetic. The BRD4(1) protein was produced and purified in the laboratory.
(§4) Percentage of inhibition was calculated using the following equation: % inhibition=[(compound signal)−(min signal)]/[(max signal)−(min signal)]*100, where ‘max signal’ is the signal ratio with the compound vehicle alone (DMSO) and ‘min signal’ the signal ratio without peptide.
(§5) Selectivity profiles of bromodomain inhibitors were performed as described in HTRF screen section. […] HTRF detection reagents (EPIgeneous™ Binding Domain kits) were purchased from Cisbio Bioassays and used according to supplier's protocol. GST tagged bromodomain proteins were purchased from BPS Bioscience and histone peptide from Genic Bio Synthetic.

Molm14 cells = assay: Cell Titer-Glo cell viability assay, Molm14; format: cell-based; conditions: Homo sapiens, MOLM-14, 72 h, mean of three experiments, NA = IC50 > maximal concentration used
Protocol: as §1, §2

Brd4(BD2) = target: T1, Brd4(BD2) (Homo sapiens, UniProt O60885); assay: HTRF BET selectivity profile, Brd4(BD2); format: binding
T1 construct: GST tagged bromodomain proteins were purchased from BPS Bioscience; purchased BPS Bioscience
Protocol: (§6) HTRF assays were performed in white 384 Well Small Volume™ HiBase Polystyrene Microplates (Greiner) with a total working volume of 20 μL. Compounds were dispensed, with 100 nL per well (0.5% final DMSO), from a concentration stock of 10 mM in 100% DMSO and with serial DMSO dilutions, using an Echo® 550 robot from the Access Labcyte platform (Labcyte) and based on the transfer of liquid by acoustic wave. Then, 19.5 μL of buffer is added, using a Multidrop Combi (Thermo Fisher Scientific). Finally, for each assay, 200 nL of master mix (protein+donor+acceptor) and 200 nL of peptide Is added in the assay wells according to the final concentration and buffer described in Table 3, using the Echo® 550 robot (Labcyte). The IC50 measurements were performed in triplicates (Table 2 and 3). All HTRF reagents (donor and acceptor) were purchased from CisBio Bioassays and reconstituted according to the supplier protocols. The peptide was purchased from Genic Bio Synthetic. The BRD4(1) protein was produced and purified in the laboratory. HTRF signals were measured, after a final incubation (3 h or 6 h or overnight at room temperature or 4° C., according to the bromodomain), using a PHERAstar FS (BMG Labtech) with an excitation filter at 337 nm and fluorescence wavelength measurement at 620 and 665 nm, an integration delay of 60 μs and an integration time of 500 μs. Results were analyzed with a two-wavelengths signal ratio: [intensity (665 nm)/intensity (620 nm)]*104.
as §4, §5

Brd3(BD2) = target: T2, Brd3(BD2) (Homo sapiens, UniProt Q15059); assay: HTRF BET selectivity profile, Brd3(BD2); format: binding
T2 construct: GST tagged bromodomain proteins were purchased from BPS Bioscience; purchased BPS Bioscience
T2 sequence (Q15059 306-415 limits assumed): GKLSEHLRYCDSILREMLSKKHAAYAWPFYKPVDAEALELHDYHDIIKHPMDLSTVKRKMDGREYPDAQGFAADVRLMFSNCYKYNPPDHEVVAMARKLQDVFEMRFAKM
Protocol: as §6, §4, §5

Brdt(BD1) = target: T3, Brdt(BD1) (Homo sapiens, UniProt Q58F21); assay: HTRF BET selectivity profile, Brdt(BD1); format: binding
T3 construct: GST tagged bromodomain proteins were purchased from BPS Bioscience; purchased BPS Bioscience
Protocol: as §6, §4, §5

Brd2(BD2) = target: T4, Brd2(BD2) (Homo sapiens, UniProt P25440); assay: HTRF BET selectivity profile, Brd2(BD2); format: binding; conditions: read-out: Brd2(BD2) IC50
T4 construct: GST tagged bromodomain proteins were purchased from BPS Bioscience; purchased BPS Bioscience
T4 sequence (P25440 344-453 limits assumed): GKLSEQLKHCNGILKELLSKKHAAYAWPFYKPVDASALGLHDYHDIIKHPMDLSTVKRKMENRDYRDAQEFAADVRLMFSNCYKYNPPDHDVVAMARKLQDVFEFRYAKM
Protocol: as §3, §4, §5

BRD4(BD1) [1] = target: T5, BRD4(BD1) (Homo sapiens, UniProt O60885); assay: HTRF assay, BRD4(BD1)/histone peptide interaction; format: binding; parameters: made in house; conditions: for IC50: HTRF; for Ratio 4-1 vs 4-2: selectivity Brd4(BD1) vs Brd4(BD2), HTRF IC50
Protocol: as §3, §4, §5

Brd2(BD1) = target: T6, Brd2(BD1) (Homo sapiens, UniProt P25440); assay: HTRF BET selectivity profile, Brd2(BD1); format: binding; conditions: for IC50: read-out: Brd2(BD1) IC50; for Ratio 2-1 vs 2-2: selectivity Brd2(BD1) vs Brd2(BD2), HTRF IC50
T6 construct: GST tagged bromodomain proteins were purchased from BPS Bioscience; purchased BPS Bioscience
T6 sequence (P25440 74-180 limits assumed): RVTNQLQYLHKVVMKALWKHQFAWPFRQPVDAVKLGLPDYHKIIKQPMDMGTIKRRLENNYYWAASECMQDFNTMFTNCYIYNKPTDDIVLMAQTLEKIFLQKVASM
Protocol: as §3, §4, §5

BRD4(BD1) [2] = target: T5, BRD4(BD1); assay: Isothermal Titration Calorimetry; format: binding; conditions: ITC; read-out: Binding affinity (Kd) to BRD4(1) by Isothermal Titration Calorimetry
Protocol: FIG. 1. Isothermal Titration Calorimetry (ITC) of 43c. Thermogram (top) and non-linear least squares fit model of the integrated data (bottom) at 15° C. of Brd4 (BD1) […] as a function of the molar ratio of ligand to the protein.
ITC was used to evaluate the thermodynamics parameters of the binding between BRD4 (BD1) and the selected compounds. Titrations were carried out on a MicroCal ITC200 microcalorimeter (GE Healthcare, Piscataway, N.J.). Each experiment was designed using a titrant concentration (protein in the syringe generally between 100 and 400 μM) set 10 to 15 times the analyte concentration (compound in the cell generally between 10 and 40 μM) and using 13 injections at 25° C. A first small injection (generally 0.2 μL) was included in the titration protocol in order to remove air bubbles trapped in the syringe prior titration. Raw data were scaled after setting the zero to the titration saturation heat value. Integrated raw ITC data were fitted to a one site non-linear least squares fit model using the MicroCal Origin plugin as implemented in Origin 7 (Origin Lab). Finally, ΔG and TΔS values were calculated from the fitted ΔH and KA values using the equations ΔG=−R.T.inKA and ΔG=ΔH−TΔS.

[3] = mean of three experiments, NA = IC50 > 50 μM, read-out: Brd4(8D1) IC50
[4] = triplicates, NA = IC50 > maximal concentration of compound used

SMILES | IC50 (Jurkat cells) [µM] | IC50 (Brd3(BD1)) [µM] | Ratio 3-1 vs 3-2 (Brd3(BD1)) | IC50 (Molm14 cells) [µM] | IC50 (Brd4(BD2)) [µM] | IC50 (Brd3(BD2)) [µM] | IC50 (Brdt(BD1)) [µM] | IC50 (Brd2(BD2)) [µM] | IC50 (BRD4(BD1) [1]; [3]) [µM] | IC50 (BRD4(BD1) [1]; [4]) [µM] | Ratio 4-1 vs 4-2 (BRD4(BD1) [1]) | IC50 (Brd2(BD1)) [µM] | Ratio 2-1 vs 2-2 (Brd2(BD1)) | Kd (BRD4(BD1) [2]) [µM]
CCn1cnc2c1c(=O)[nH]c(=O)n2Cc1ccc(CNS(=O)(=O)c2ccn(-c3ccccc3)n2)cc1 [Compound 24b] | 14.2 | 1 | 12 | 10.2 | 5.85 | 12 | 6.26 | 6.05 | 0.846 | 0.846 | 7 | 3.33 | 2 | –
CCn1cnc2c1c(=O)[nH]c(=O)n2Cc1ccc(CNS(=O)(=O)c2ccc(-c3cc(C)n[nH]3)s2)cc1 [Compound 25a] | 13.5 | 0.507 | 6 | 9.9 | 4.05 | 3.17 | 3.47 | 3.2 | 0.284 | 0.284 | 14 | 2.1 | 2 | –
CCn1cnc2c1c(=O)[nH]c(=O)n2Cc1ccc(CNS(=O)(=O)c2cc3ccccc3s2)cc1 [Compound 25b] | 5.2 | 1.54 | 8 | 11.1 | 12.8 | 12.4 | 7.44 | 10.5 | 0.779 | 0.779 | 16 | 1.38 | 8 | –
CCn1cnc2c1c(=O)[nH]c(=O)n2Cc1ccc(CNS(=O)(=O)c2ccc3scnc3c2)cc1 [Compound 25c] | 6.1 | 4.77 | 4 | 14.8 | 21.2 | 17.4 | 14 | 23.5 | 1.59 | 1.6 | 13 | 4.18 | 7 | –
CCn1cnc2c1c(=O)[nH]c(=O)n2Cc1ccc(CNS(=O)(=O)c2cccc(-c3ccccc3)c2)cc1 [Compound 29c] | 6.9 | 1.6 | 12 | 8.9 | 12.2 | 18.9 | 7.44 | 14.7 | 0.814 | 0.814 | 15 | 5.47 | 3 | 1.1
CCn1cnc2c1c(=O)[nH]c(=O)n2Cc1cc(OC)c(CNS(=O)(=O)c2ccc3c(c2)CCCC(=O)N3)cc1OC [Compound 32a] | 23.3 | – | – | 30.2 | – | – | – | – | – | 13 | – | – | – | –
CCCCc1c(C)nc2nc(SCc3nc4c(c(=O)[nH]c(=O)n4Cc4ccc(CNS(=O)(=O)c5ccc6c(c5)CCCC(=O)N6)cc4)n3CC)nn2c1C [Compound 32c, N-(4-((8-(((6-butyl-5,7-dimethyl-[1,2,4]triazolo[1,5-a]pyrimidin-2-yl)thio)methyl)-7-ethyl-2,6-dioxo-1,2,6,7-tetrahydro-3H-purin-3-yl)methyl)benzyl)-2-oxo-2,3,4,5-tetrahydro-1H-benzo[b]azepine-7-sulfonamide] | 32.5 | 4.43 | 1 | – | 9.15 | 4.16 | 18.9 | 3.36 | 1.08 | 1.1 | 9 | 4.67 | 0.7 | 2.1
CCn1cnc2c1c(=O)[nH]c(=O)n2Cc1ccc(CNS(=O)(=O)c2ccc(Oc3cncc(C)n3)cc2)cc1 [Compound 42c] | – | – | – | 12.2 | – | – | – | – | – | 0.75 | – | – | – | –
CCn1cnc2c1c(=O)[nH]c(=O)n2Cc1ccc(CNS(=O)(=O)c2ccc(C(=O)N3CCOCC3)cc2)cc1 [Compound 44b] | – | 0.23 | 14 | 23.7 | 4.24 | 3.32 | 0.397 | 1.96 | 0.123 | 0.123 | 34 | 0.352 | 6 | 0.17
CCn1cnc2c1c(=O)[nH]c(=O)n2Cc1ccc(CNS(=O)(=O)c2ccc(Oc3ccc(C(F)(F)F)cc3)cc2)cc1 [Compound 44c] | – | – | – | 9.3 | – | – | – | – | – | 0.522 | – | – | – | –
